From article PMC8951032, “Study of Biological Activities and ADMET-Related Properties of Novel Chlorinated N-arylcinnamamides” (International Journal of Molecular Sciences, 2022)
Converted amounts (≈) assume the structure as drawn. Like-named read-outs stand apart in the source and are kept apart here.

Assays:
[1] = test system: vancomycin-resistant E. faecalis (VRE) 368; test: In vitro antienterococcal activity, microtitration broth MIC; type: cell-based, Enterococcus faecalis
[2] = Lipophilicity determination by RP-HPLC (log k, log D); type: physicochemical; conditions: for log k: MeOH 72%/H2O 28%; for log D6.5: MeOH 72%/acetate buffered saline pH 6.5; for log D7.4: MeOH 72%/acetate buffered saline pH 7.4
Description: In addition to the mentioned ADME profile, it is responsible for interactions with biological targets. Lipophilicity is recognized as one of the most important parameters influencing ADME and bioactivity and is also part, e.g., of Lipinski’s Rule of Five (Ro5). This thermodynamic parameter describing the molecule’s affinity for an aqueous or relatively lipophilic environment can be characterized by the logarithm of the partition coefficient (log P). In this study, lipophilicity was measured by reversed-phase high-performance liquid chromatography (RP-HPLC) under isocratic conditions with methanol as the organic modifier in the aqueous mobile phase and the logarithm of the capacity factor k was calculated, which is used as the lipophilicity index converted to the log P scale. In addition to the log k values, the logarithm of the distribution coefficient DpH at pH 6.5 and 7.4 was determined to clarify the behavior of the compounds under physiological conditions and possible ionization. Instead of water, a buffer of suitable pH was used as part of the mobile phase. In addition to the above-mentioned experimental methods, commercially available ChemBioDraw Ultra 13.0 and ACD/Percepta ver. 2012 programs were used to calculate the lipophilicity values of all prepared compounds.
A HPLC separation module Waters Alliance 2695 XE equipped with a Waters Dual Absorbance Detector 2486 (Waters Corp., Milford, MA, USA) was used. A chromatographic column Symmetry® C18 5 μm, 4.6 × 250 mm, Part No. W21751W016 (Waters Corp., Milford, MA, USA) was used. The HPLC separation process was monitored by Empower® 3 Chromatography Manager Software (Waters Corp.). Isocratic elution by a mixture of MeOH p.a. (72%) and H2O-HPLC Mili-Q grade (28%) as a mobile phase was used for the determination of capacity factor k. Isocratic elution by a mixture of MeOH p.a. (72%) and acetate buffered saline (pH 7.4 and pH 6.5) (28%) as a mobile phase was used for the determination of distribution coefficient expressed as D7.4 and D6.5. The total flow of the column was 1.0 mL/min, injection 20 μL, column temperature 40 °C, and sample temperature 10 °C. The detection wavelength of 210 nm was chosen. A KI methanolic solution was used for the determination of the dead times (tD). Retention times (tR) were measured in minutes. The capacity factors k were calculated according to the formula k = (tR − tD)/tD, where tR is the retention time of the solute, and tD is the dead time obtained using an unretained analyte. The distribution coefficients DpH were calculated according to the formula DpH = (tR − tD)/tD. Each experiment was repeated three times.

[3] = test system: Staphylococcus aureus ATCC 29213; test: In vitro antistaphylococcal activity, microtitration broth MIC; type: cell-based; conditions: for MIC: Staphylococcus aureus
[4] = test system: vancomycin-resistant E. faecalis (VRE) 342B; test: In vitro antienterococcal activity, microtitration broth MIC; type: cell-based, Enterococcus faecalis; conditions: 24 h
[5] = test system: human synovial cell line SW982; test: In vitro cell viability, CCK-8; type: cell-based; conditions: 10% fetal bovine serum
Description: (§1) The effect of the compounds on viability of eukaryotic cells was evaluated on human leukemia cell line THP-1, human synovial cell line SW982, and isolated primary porcine monocytes-delivered macrophages (MDM). The general cytotoxic effect was studied on THP-1 cells in the serum-free medium (only THP-1 as the only cells used in this study are able to survive in serum-free medium). Most of the compounds had no cytotoxic effect on THP-1 cells. […] This could be caused by the direct interaction of such compounds with serum proteins or by the effect of mitogens, cytokines, and hormones present in the serum. Obviously, the full medium is closer to physiological conditions in living organisms, so it can be assumed that these compounds could be non-toxic there.
(§2) Human monocytic leukemia cell line THP-1 and human synovial cell line SW982 were purchased from the European Collection of Cell Cultures (ECACC, Salisbury, UK) and were used for determination of the influence of test compounds on cell viability, as described previously. These cell lines represent typical suspension and adherent cells, respectively. They were cultivated with test substances in the presence or absence of fetal bovine serum (FBS) in the cultivation medium, and the relative cell viability (the ratio between cells treated with compounds and cells treated only with DMSO) was determined by CCK-8 kit (Sigma) after 24 h.

[6] = test system: human monocytic leukemia cell line THP-1; test: In vitro cell viability, CCK-8; type: cell-based; conditions: Homo sapiens, THP-1
Description: as §1, §2

[7] = test system: methicillin-resistant S. aureus SA 3202; test: In vitro antistaphylococcal activity, microtitration broth MIC; type: cell-based; conditions: Staphylococcus aureus
[8] = test system: Mycobacterium smegmatis ATCC 700084; test: In vitro antimycobacterial activity, broth dilution MIC; type: cell-based; conditions: Mycolicibacterium smegmatis
[9] = test system: methicillin-resistant S. aureus (MRSA) 63718; test: In vitro antistaphylococcal activity, microtitration broth MIC; type: cell-based; conditions: Staphylococcus aureus
[10] = test system: Mycobacterium marinum CAMP 5644; test: In vitro antimycobacterial activity, broth dilution MIC; type: cell-based; conditions: CAMP5644, 504 h
[11] = test system: vancomycin-resistant E. faecalis (VRE) 725B; test: In vitro antienterococcal activity, microtitration broth MIC; type: cell-based, Enterococcus faecalis; conditions: 24 h
[12] = test system: S. aureus, MRSA, E. faecalis, VRE, M. smegmatis, M. marinum; test: In vitro antimicrobial screening, all tested strains; type: cell-based; conditions: antibacterial/antimycobacterial screening
[13] = 24 h, VRE 368, read-out: log(1/MIC [M]) VRE2 (converted)
[14] = VRE 368, 24 h, read-out: MIC VRE2
[15] = ATCC29213, 24 h, S. aureus ATCC 29213, read-out: log(1/MIC [M]) SA (converted)
[16] = ATCC29213, S. aureus ATCC 29213, 24 h, read-out: MIC SA
[17] = read-out: log(1/MIC [M]) VRE1 (converted)
[18] = 24 h, read-out: IC50 SW982 10% FSB
[19] = read-out: log(1/IC50 [M]) SW982 10% FSB (converted)
[20] = 10% fetal bovine serum, 24 h, read-out: IC50 THP-1 10% FSB
[21] = 10% fetal bovine serum, read-out: log(1/IC50 [M]) THP-1 10% FSB (converted)
[22] = serum-free medium, 24 h, read-out: IC50 THP-1 SFM
[23] = serum-free medium, read-out: log(1/IC50 [M]) THP-1 SFM (converted)
[24] = 24 h, MRSA SA 3202, read-out: log(1/MIC [M]) MRSA3 (converted)
[25] = MRSA SA 3202, 24 h, read-out: MIC MRSA3
[26] = ATCC700084, 72 h, M. smegmatis ATCC 700084, three days, read-out: MIC MS
[27] = ATCC700084, M. smegmatis ATCC 700084, read-out: log(1/MIC [M]) MS (converted)
[28] = 24 h, MRSA 63718, read-out: log(1/MIC [M]) MRSA1 (converted)
[29] = MRSA 63718, 24 h, read-out: MIC MRSA1
[30] = M. marinum CAMP 5644, 21 days, read-out: MIC MM
[31] = M. marinum CAMP 5644, read-out: log(1/MIC [M]) MM (converted)
[32] = read-out: log(1/MIC [M]) VRE3 (converted)

Compound	MIC [1, 13] [M]	MIC [1, 14] [M]	log k [2]	log D6.5 [2]	log D7.4 [2]	MIC [3, 15] [M]	MIC [3, 16] [M]	MIC ([4]; read-out: MIC VRE1) [M]	MIC [4, 17] [M]	IC50 [5, 18] [M]	IC50 [5, 19] [M]	IC50 [6, 20] [M]	IC50 [6, 21] [M]	IC50 [6, 22] [M]	IC50 [6, 23] [M]	MIC [7, 24] [M]	MIC [7, 25] [M]	MIC [8, 26] [M]	MIC [8, 27] [M]	MIC [9, 28] [M]	other results
O=C(/C=C/c1ccc(Cl)c(Cl)c1)Nc1ccccc1 [2a, (2E)-3-(3,4-Dichlorophenyl)-N-phenylprop-2-enamide]	> 0.000871	> 0.000876	0.6199	0.6669	0.6354	1.38e-05 (≈ 4.03 µg/mL)	1.36e-05 (≈ 3.97 µg/mL)	> 0.000876	> 0.000871	> 1e-05	> 1e-05	> 1e-05	> 1e-05	7.5e-06 ± 1e-06	7.59e-06	> 0.000871	> 0.000876	1.36e-05 (≈ 3.97 µg/mL)	1.38e-05 (≈ 4.03 µg/mL)	> 0.000871	MIC [9, 29]: > 0.000876 M; MIC [10, 30]: 0.000876 M (≈ 256 µg/mL); MIC [10, 31]: 0.000871 M (≈ 254 µg/mL); MIC ([11]; read-out: MIC VRE3): > 0.000876 M; MIC [11, 32]: > 0.000871 M
O=C(/C=C/c1ccc(Cl)c(Cl)c1)Nc1cccc(C(F)(F)F)c1 [2i, (2E)-3-(3,4-Dichlorophenyl)-N-[3-(trifluoromethyl)phenyl]prop-2-enamide]	2.24e-05 (≈ 8.06 µg/mL)	2.22e-05 (≈ 8 µg/mL)	0.9873	0.9915	0.9505	1.38e-06 (≈ 0.497 µg/mL)	1.39e-06 (≈ 0.501 µg/mL)	2.22e-05 (≈ 8 µg/mL)	2.24e-05 (≈ 8.06 µg/mL)	> 1e-05	> 1e-05	> 1e-05	> 1e-05	1.9e-06 ± 1e-06	1.91e-06	1.38e-06 (≈ 0.497 µg/mL)	1.39e-06 (≈ 0.501 µg/mL)	5.55e-06 (≈ 2 µg/mL)	5.5e-06 (≈ 1.98 µg/mL)	6.92e-07 (≈ 0.249 µg/mL)	antimicrobial activity (in words) [12]: active; MIC [9, 29]: 6.94e-07 M (≈ 0.25 µg/mL); MIC [10, 30]: 5.55e-06 M (≈ 2 µg/mL); MIC [10, 31]: 5.5e-06 M (≈ 1.98 µg/mL); MIC ([11]; read-out: MIC VRE3): 4.44e-05 M (≈ 16 µg/mL); MIC [11, 32]: 4.47e-05 M (≈ 16.1 µg/mL)
O=C(/C=C/c1ccc(Cl)c(Cl)c1)Nc1ccc(C(F)(F)F)cc1 [2j, (2E)-3-(3,4-Dichlorophenyl)-N-[4-(trifluoromethyl)phenyl]prop-2-enamide]	1.12e-05 (≈ 4.04 µg/mL)	1.11e-05 (≈ 4 µg/mL)	1.0364	1.0370	0.9945	6.92e-07 (≈ 0.249 µg/mL)	6.94e-07 (≈ 0.25 µg/mL)	1.11e-05 (≈ 4 µg/mL)	1.12e-05 (≈ 4.04 µg/mL)	> 1e-05	> 1e-05	> 1e-05	> 1e-05	9e-07 ± 1e-06	8.91e-07	6.92e-07 (≈ 0.249 µg/mL)	6.94e-07 (≈ 0.25 µg/mL)	2.78e-06 (≈ 1 µg/mL)	2.75e-06 (≈ 0.992 µg/mL)	3.72e-07 (≈ 0.134 µg/mL)	activity against S. aureus and MRSA isolates (in words) ([3]; S. aureus and MRSA isolates): submicromolar; antimicrobial activity (in words) [12]: active; MIC [9, 29]: 3.71e-07 M (≈ 0.134 µg/mL); MIC [10, 30]: 2.78e-06 M (≈ 1 µg/mL); MIC [10, 31]: 2.75e-06 M (≈ 0.992 µg/mL); MIC ([11]; read-out: MIC VRE3): 1.11e-05 M (≈ 4 µg/mL); MIC [11, 32]: 1.12e-05 M (≈ 4.04 µg/mL)
